Tests used:
Assay in all cases: relative viability (nuclei count vs DMSO), 5 days (fraction); higher = more cells survive
[1] = compound: CC1=CC=C(C=C1)C(=O)CN2C3=C(CCCC3)SC2=N [Pifithrin_alpha] + Cc1nc(NC(=O)N2CCC[C@H]2C(N)=O)sc1-c1ccnc(C(C)(C)C(F)(F)F)c1 [Alpelisib] (partner 2 µM)
In short: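 Dosing by pin tool came one day after lung cancer cell lines were seeded in 1536-well plates, using either one drug or a fixed anchor-drug dose plus five library-drug doses (not always all listed) in √10 steps. After 5 days, nuclei were counted on 4× images. Relative viability is treated-well nuclei count divided by vehicle-well nuclei count, and values are medians of duplicate plates.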

[2] = compound: Nc1nc(Nc2ccc3c(c2)CC[C@@H](N2CCCC2)CC3)nn1-c1cc2c(nn1)-c1ccccc1CCC2 [Bemcentinib]
In short: (§1)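 Following overnight incubation at 37 °C, lung cancer cell lines in 1536-well plates were pinned with five library-drug doses (not always all listed) in √10 steps on vehicle-anchored plates. The cells then spent 5 days without medium change before a combined fix, permeabilisation and Hoechst stain, 4× imaging and MetaXpress nuclear counts. Viability is the treated-to-vehicle ratio of nuclei, taken as the median across plates. Only plates with control CV below 25% and at least one doubling passed.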

[3] = compound: CC1=CC=C(C=C1)C(=O)CN2C3=C(CCCC3)SC2=N [Pifithrin_alpha]
In short: as §1

[4] = compound: CNC(=O)c1ccccc1Sc1ccc2c(/C=C/c3ccccn3)n[nH]c2c1 [Axitinib]
In short: as §1

| Cell Line | relative viability ([1]; first compound 1 µM) | relative viability ([1]; first compound 3.162 µM) | relative viability ([1]; first compound 10 µM) | relative viability ([1]; first compound 31.62 µM) | relative viability ([1]; first compound 100 µM) | relative viability ([2]; 0.04 µM) | relative viability ([2]; 0.1265 µM) | relative viability ([2]; 0.4 µM) | relative viability ([2]; 1.265 µM) | relative viability ([2]; 4 µM) | relative viability ([3]; 1 µM) | relative viability ([3]; 3.162 µM) | relative viability ([3]; 10 µM) | relative viability ([3]; 31.62 µM) | relative viability ([3]; 100 µM) | relative viability ([4]; 0.005 µM) | relative viability ([4]; 0.01581 µM) | relative viability ([4]; 0.05 µM) | relative viability ([4]; 0.1581 µM) | relative viability ([4]; 0.5 µM) |
| --- | --- | --- | --- | --- | --- | --- | --- | --- | --- | --- | --- | --- | --- | --- | --- | --- | --- | --- | --- | --- |
| NCI-H1793 | 0.752 | 0.68 | 0.839 | 0.73 | 0.538 | 0.834 | 1.05 | 0.882 | 0.686 | 0.999 | 0.734 | 0.817 | 0.838 | 0.823 | 0.874 | 1.06 | 0.833 | 0.889 | 0.819 | 0.647 |
| HCC-78 | 0.295 | 0.337 | 0.352 | – | 0.296 | 0.752 | 0.926 | 1.07 | 0.791 | 0.957 | 0.669 | 0.892 | 0.815 | 0.694 | 0.823 | 0.978 | 1.02 | 0.893 | 0.936 | 0.867 |
| NCI-H322M | 0.777 | 0.651 | 0.802 | 0.581 | 0.87 | 0.873 | 0.966 | 0.982 | 0.953 | 0.998 | 0.906 | 0.891 | 1.01 | 0.851 | 0.869 | 1.03 | 0.847 | 0.992 | 0.813 | 1.03 |
| COR-L23 | 0.857 | 0.849 | 0.931 | – | 0.663 | 1.03 | 1.17 | 1.14 | 1.18 | 1.12 | 1.07 | 1.09 | 0.977 | – | 0.94 | 1.05 | 0.93 | 1.06 | 0.923 | 1.05 |
| 201T | 1.04 | 0.83 | 0.792 | 0.81 | 0.79 | 0.943 | 0.982 | 1.05 | 0.947 | 1.01 | 0.992 | 0.781 | 0.679 | 0.646 | 0.724 | 0.994 | 0.936 | 0.953 | 0.964 | 0.955 |
| NCI-H2347 | 0.952 | 0.993 | 0.991 | 0.682 | 1.1 | 0.953 | 1.17 | 1.06 | 0.956 | 1.04 | 0.954 | 1.03 | 1.07 | 0.744 | 1.03 | 0.983 | 0.959 | 1.09 | 1.06 | 0.951 |
| LCLC-97TM1 | – | 0.226 | 0.224 | – | 0.236 | 0.997 | 1.09 | 0.801 | 1.03 | 0.982 | – | 0.934 | 1.13 | – | 0.975 | 1.06 | 1.02 | 0.986 | 0.892 | 0.822 |

From the supplement of paper PMC10307832
